From patent US20130303509A1, “NAMPT INHIBITORS” (AbbVie Inc., priority 2012, published 2013)

System: PC3 cells
Experiment: NAMPT Cell Proliferation Assay
Assay type: cell-based
Conditions: Homo sapiens, PC-3, 120 h, 5 days incubation, cell viability by Cell Titer Glo
In short: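 Seeded at 500 cells/well in RPMI with 10% heat-inactivated FBS and left to attach overnight at 37° C, 5% CO2. Compounds were added as 10-fold dilutions […] for 5 days, then viability was read by CellTiter-Glo. IC50s came from sigmoidal fits of percent inhibition.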

SMILES | IC50
CC(C)C(=O)N1CCC(c2ccc(NC(=O)C3CN(c4cccnn4)C3)cc2)CC1 [Example 147, N-{4-[1-(2-methylpropanoyl)piperidin-4-yl]phenyl}-1-(pyridazin-3-yl)azetidine-3-carboxamide] | 0.95 nM
CC(C)Cn1cc(-c2ccc(NC(=O)C3CN(c4ccnnc4)C3)cc2)cn1 [Example 148, N-{4-[1-(2-methylpropyl)-1H-pyrazol-4-yl]phenyl}-1-(pyridazin-4-yl)azetidine-3-carboxamide] | 76.1 nM
CCCCC(=O)N1CCC(c2ccc(NC(=O)C3CN(c4cccnc4C)C3)cc2)CC1 [Example 159, 1-(2-methylpyridin-3-yl)-N-[4-(1-pentanoylpiperidin-4-yl)phenyl]azetidine-3-carboxamide] | 182 nM
CCC(C)CC(=O)N1CCC(c2ccc(NC(=O)C3CN(c4cccnc4C)C3)cc2)CC1 (centres unmarked) [Example 160, N-{4-[1-(3-methylpentanoyl)piperidin-4-yl]phenyl}-1-(2-methylpyridin-3-yl)azetidine-3-carboxamide] | 173 nM
Cc1ncccc1N1CC(C(=O)Nc2ccc(C3CCN(C(=O)CC4C[C@@H]5CC[C@H]4C5)CC3)cc2)C1 (stereo partly drawn) [Example 161, N-(4-{1-[(1S,4R)-bicyclo[2.2.1]hept-2-ylacetyl]piperidin-4-yl}phenyl)-1-(2-methylpyridin-3-yl)azetidine-3-carboxamide] | 213 nM
Cc1ncccc1N1CC(C(=O)Nc2ccc(C3CCN(C(=O)CC4CCCC4)CC3)cc2)C1 [Example 162, N-{4-[1-(cyclopentylacetyl)piperidin-4-yl]phenyl}-1-(2-methylpyridin-3-yl)azetidine-3-carboxamide] | 225 nM
Cc1ncccc1N1CC(C(=O)Nc2ccc(C3CCN(C(=O)C4CC4C)CC3)cc2)C1 (centres unmarked) [Example 163, N-(4-{1-[(2-methylcyclopropyl)carbonyl]piperidin-4-yl}phenyl)-1-(2-methylpyridin-3-yl)azetidine-3-carboxamide] | 120 nM
Cc1ncccc1N1CC(C(=O)Nc2ccc(C3CCN(C(=O)CN4CCOCC4)CC3)cc2)C1 [Example 164, 1-(2-methylpyridin-3-yl)-N-{4-[1-(morpholin-4-ylacetyl)piperidin-4-yl]phenyl}azetidine-3-carboxamide] | 202 nM
Cc1ncccc1N1CC(C(=O)Nc2ccc(C3CCN(C(=O)CN4CCCC4)CC3)cc2)C1 [Example 166, 1-(2-methylpyridin-3-yl)-N-{4-[1-(pyrrolidin-1-ylacetyl)piperidin-4-yl]phenyl}azetidine-3-carboxamide] | 1070 nM
Cc1ncccc1N1CC(C(=O)Nc2ccc(C3CCN(C(=O)[C@H]4CCC(=O)N4)CC3)cc2)C1 [Example 167, 1-(2-methylpyridin-3-yl)-N-{4-[1-(5-oxo D-prolyl)piperidin-4-yl]phenyl}azetidine-3-carboxamide] | 6250 nM
Cc1ncccc1N1CC(C(=O)Nc2ccc(C3CCN(C(=O)CCN(C)C)CC3)cc2)C1 [Example 168, N-{4-[1-(N,N-dimethyl-beta-alanyl)piperidin-4-yl]phenyl}-1-(2-methylpyridin-3-yl)azetidine-3-carboxamide] | 1010 nM
Cc1ncccc1N1CC(C(=O)Nc2ccc(C3CCN(C(=O)C4(C)CC4)CC3)cc2)C1 [Example 170, N-(4-{1-[(1-methylcyclopropyl)carbonyl]piperidin-4-yl}phenyl)-1-(2-methylpyridin-3-yl)azetidine-3-carboxamide] | 65.5 nM
Cc1ncccc1N1CC(C(=O)Nc2ccc(C3CCN(C(=O)CCC(F)(F)F)CC3)cc2)C1 [Example 172, 1-(2-methylpyridin-3-yl)-N-{4-[1-(4,4,4-trifluorobutanoyl)piperidin-4-yl]phenyl}azetidine-3-carboxamide] | 329 nM
Cc1ncccc1N1CC(C(=O)Nc2ccc(C3CCN(C(=O)CN4CCN(C)CC4)CC3)cc2)C1 [Example 173, N-(4-{1-[(4-methylpiperazin-1-yl)acetyl]piperidin-4-yl}phenyl)-1-(2-methylpyridin-3-yl)azetidine-3-carboxamide] | 627 nM
Cc1ncccc1N1CC(C(=O)Nc2ccc(C3CCN(C(=O)[C@@H]4CCC(=O)N4)CC3)cc2)C1 [Example 174, 1-(2-methylpyridin-3-yl)-N-{4-[1-(5-oxo-L-prolyl)piperidin-4-yl]phenyl}azetidine-3-carboxamide] | 1130 nM
CCOCCC(=O)N1CCC(c2ccc(NC(=O)C3CN(c4cccnc4C)C3)cc2)CC1 [Example 175, N-{4-[1-(3-ethoxypropanoyl)piperidin-4-yl]phenyl}-1-(2-methylpyridin-3-yl)azetidine-3-carboxamide] | 683 nM
Cc1ncccc1N1CC(C(=O)Nc2ccc(C3CCN(C(=O)CCC(C)C)CC3)cc2)C1 [Example 176, N-{4-[1-(4-methylpentanoyl)piperidin-4-yl]phenyl}-1-(2-methylpyridin-3-yl)azetidine-3-carboxamide] | 218 nM
Cc1ncccc1N1CC(C(=O)Nc2ccc(C3CCN(C(=O)C4(C)CCCCC4)CC3)cc2)C1 [Example 177, N-(4-{1-[(1-methylcyclohexyl)carbonyl]piperidin-4-yl}phenyl)-1-(2-methylpyridin-3-yl)azetidine-3-carboxamide] | 107 nM
Cc1ncccc1N1CC(C(=O)Nc2ccc(C3CCN(C(=O)CC4CCCCC4)CC3)cc2)C1 [Example 179, N-{4-[1-(cyclohexylacetyl)piperidin-4-yl]phenyl}-1-(2-methylpyridin-3-yl)azetidine-3-carboxamide] | 192 nM
CC(=O)N[C@@H](CC(C)C)C(=O)N1CCC(c2ccc(NC(=O)C3CN(c4cccnc4C)C3)cc2)CC1 [Example 180, N-{4-[1-(N-acetyl-L-leucyl)piperidin-4-yl]phenyl}-1-(2-methylpyridin-3-yl)azetidine-3-carboxamide] | 164 nM

The next lines start with the values.

IC50 | SMILES
58 nM | Cc1ncccc1N1CC(C(=O)Nc2ccc(C3CCN(C(=O)c4ccccc4)CC3)cc2)C1 [Example 149, N-[4-(1-benzoylpiperidin-4-yl)phenyl]-1-(2-methylpyridin-3-yl)azetidine-3-carboxamide]
58.9 nM | Cc1ncccc1N1CC(C(=O)Nc2ccc(C3CCN(C(=O)c4ccccc4F)CC3)cc2)C1 [Example 150, N-{4-[1-(2-fluorobenzoyl)piperidin-4-yl]phenyl}-1-(2-methylpyridin-3-yl)azetidine-3-carboxamide]
60.9 nM | Cc1ncccc1N1CC(C(=O)Nc2ccc(C3CCN(C(=O)c4ccccc4Cl)CC3)cc2)C1 [Example 151, N-{4-[1-(2-chlorobenzoyl)piperidin-4-yl]phenyl}-1-(2-methylpyridin-3-yl)azetidine-3-carboxamide]
116 nM | Cc1ncccc1N1CC(C(=O)Nc2ccc(C3CCN(C(=O)c4cccc(F)c4)CC3)cc2)C1 [Example 152, N-{4-[1-(3-fluorobenzoyl)piperidin-4-yl]phenyl}-1-(2-methylpyridin-3-yl)azetidine-3-carboxamide]
699 nM | Cc1ncccc1N1CC(C(=O)Nc2ccc(C3CCN(C(=O)c4cccc(Cl)c4)CC3)cc2)C1 [Example 153, N-{4-[1-(3-chlorobenzoyl)piperidin-4-yl]phenyl}-1-(2-methylpyridin-3-yl)azetidine-3-carboxamide]
803 nM | Cc1ncccc1N1CC(C(=O)Nc2ccc(C3CCN(C(=O)c4cc(Cl)cc(Cl)c4)CC3)cc2)C1 [Example 154, N-{4-[1-(3,5-dichlorobenzoyl)piperidin-4-yl]phenyl}-1-(2-methylpyridin-3-yl)azetidine-3-carboxamide]
701 nM | Cc1ncccc1N1CC(C(=O)Nc2ccc(C3CCN(C(=O)c4ccc(F)cc4)CC3)cc2)C1 [Example 155, N-{4-[1-(4-fluorobenzoyl)piperidin-4-yl]phenyl}-1-(2-methylpyridin-3-yl)azetidine-3-carboxamide]
712 nM | Cc1ncccc1N1CC(C(=O)Nc2ccc(C3CCN(C(=O)c4ccc(Cl)cc4)CC3)cc2)C1 [Example 156, N-{4-[1-(4-chlorobenzoyl)piperidin-4-yl]phenyl}-1-(2-methylpyridin-3-yl)azetidine-3-carboxamide]
948 nM | Cc1ncccc1N1CC(C(=O)Nc2ccc(C3CCN(C(=O)c4ccc(C(F)(F)F)cc4)CC3)cc2)C1 [Example 157, 1-(2-methylpyridin-3-yl)-N-(4-{1-[4-(trifluoromethyl)benzoyl]piperidin-4-yl}phenyl)azetidine-3-carboxamide]
1300 nM | Cc1ncccc1N1CC(C(=O)Nc2ccc(C3CCN(C(=O)c4cccnn4)CC3)cc2)C1 [Example 158, 1-(2-methylpyridin-3-yl)-N-{4-[1-(pyridazin-3-ylcarbonyl)piperidin-4-yl]phenyl}azetidine-3-carboxamide]
68.2 nM | Cc1ncccc1N1CC(C(=O)Nc2ccc(C3CCN(C(=O)c4ccoc4)CC3)cc2)C1 [Example 165, N-{4-[1-(furan-3-ylcarbonyl)piperidin-4-yl]phenyl}-1-(2-methylpyridin-3-yl)azetidine-3-carboxamide]
65.4 nM | Cc1ncccc1N1CC(C(=O)Nc2ccc(C3CCN(C(=O)c4ccsc4)CC3)cc2)C1 [Example 169, 1-(2-methylpyridin-3-yl)-N-{4-[1-(thiophen-3-ylcarbonyl)piperidin-4-yl]phenyl}azetidine-3-carboxamide]
68.1 nM | Cc1ccsc1C(=O)N1CCC(c2ccc(NC(=O)C3CN(c4cccnc4C)C3)cc2)CC1 [Example 171, 1-(2-methylpyridin-3-yl)-N-(4-{1-[(3-methylthiophen-2-yl)carbonyl]piperidin-4-yl}phenyl)azetidine-3-carboxamide]
300 nM | CC(=O)N1CCC(c2ccc(NC(=O)C3CN(c4cccnc4C)C3)cc2)CC1 [Example 178, N-[4-(1-acetylpiperidin-4-yl)phenyl]-1-(2-methylpyridin-3-yl)azetidine-3-carboxamide]
238 nM | CCC(=O)N1CCC(c2ccc(NC(=O)C3CN(c4cccnc4C)C3)cc2)CC1 [Example 181, 1-(2-methylpyridin-3-yl)-N-[4-(1-propanoylpiperidin-4-yl)phenyl]azetidine-3-carboxamide]
